Results published in patent publication US8153630B2, “Kinase inhibitors” (Miikana Therapeutics, Inc., priority 2004, dated 2012).

Experiments:
[1] = biological target: T1, recombinant Aurora A (Homo sapiens, UniProt O14965); test: PanVera Z'-Lyte Aurora kinase assay; format: biochemical; details: Z'-Lyte Ser/Thr 1 peptide 2 μM, ATP 10 μM, 1 h
T1 construct: purchased Upstate, Lake Placid, N.Y
T1 sequence (O14965 1-403): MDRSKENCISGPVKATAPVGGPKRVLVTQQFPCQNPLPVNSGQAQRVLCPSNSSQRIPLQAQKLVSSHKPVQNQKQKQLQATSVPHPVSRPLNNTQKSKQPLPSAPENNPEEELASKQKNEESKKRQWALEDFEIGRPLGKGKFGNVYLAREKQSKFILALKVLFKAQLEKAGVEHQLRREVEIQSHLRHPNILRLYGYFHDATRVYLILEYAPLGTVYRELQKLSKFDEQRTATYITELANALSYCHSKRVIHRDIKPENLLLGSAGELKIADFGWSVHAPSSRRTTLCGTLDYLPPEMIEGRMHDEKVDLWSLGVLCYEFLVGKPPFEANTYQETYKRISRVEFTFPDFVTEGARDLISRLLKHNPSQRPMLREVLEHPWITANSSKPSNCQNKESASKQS
Experimental: Compounds 7-14 above were tested for their potency against recombinant Aurora A (Upstate, Lake Placid, N.Y.) using the PanVera Z'-Lyte kinase assay kit—Ser/Thr 1 peptide (Invitrogen, Carlsbad, Calif.). Assays were carried out in kinase assay buffer (50 mM HEPES, pH 7.5, 10 mM MgCl2, 5 mM EGTA, 0.05% Brij-35, 2 mM DTT). Test compounds were initially dissolved in DMSO at 100× the highest tested concentration, then serially diluted to 4× test concentrations in kinase assay buffer. Next, Aurora A (final concentration 200-500 ng/mL), Z′-Lyte Ser/Thr 1 peptide (final concentration 2 μM) and ATP (final concentration 10 μM) were added according to the manufacturer's instructions. Assays were carried out in half-area 96-well white polystyrene assay plates (Corning, Corning, N.Y.) in a final volume of 20 μL. The reaction was allowed to proceed for 1 h at room temperature in the dark, at which point the development reagent and stop reagent were added according to the manufacturer's instructions. Coumarin (Ex. 400 nm, Em. 465 nm) and fluorescein (Ex. 400 nm, Em. 565 nm) fluorescence values were measured on a SpectraFluor Plus plate reader (Tecan, Durham, N.C.). The emission ratio (coumarin/fluorescein) was determined and used to calculate the percent phosphorylation for each well. Wells containing substrate but no kinase and wells containing a phosphopeptide control were used to set 0% and 100% phosphorylation values, respectively. Typically 20-40% of the substrate was phosphorylated in wells without inhibitor. Dose-response curves of relative Aurora A activity vs. inhibitor concentration were plotted with Grafit (Erithacus Software, Horley, Surrey, UK) and used to calculate IC50 values.

[2] = biological target: Aurora B kinase (Homo sapiens, UniProt Q96GD4); test: Aurora B (Aurora 1) inhibition assay; format: biochemical; details: compound concentration 100 μM; ATP 50 μM, 16 h; read-out: inhibition of the Aurora B enzyme
[3] = tested on: HCT 116 Cells; test: Aurora kinase whole cell cytotoxicity assay: Sulforhodamine B; format: cell-based; details: Homo sapiens, HCT116, SRB staining, 96 hours incubation
Experimental: Human tumour-derived cell lines, HCT116 or MCF7 (ATCC) were plated in a 96 well plate in DMEM containing 10% fetal bovine serum and 2 mM L-glutamine at a density of 500 HCT116 cells or 1,000 MCF7 cells per well and incubated at 37° C., 5% CO2, for 24 hours prior to the addition of experimental compounds. Compounds were added using the dilution series indicated to duplicate plates and the cells were incubated in media plus compound for 96 hours. An additional plate was fixed in 10% TCA at the time of the addition of compound to provide a measurement of the cell population at time zero, the time of drug addition. Following the 96 hour incubation, cells were fixed in situ by gently aspirating off the culture media and then adding 50 ul of ice cold 10% TCA per well and incubation at 4° C. for 60 minutes. The plates were washed with tap water five times and allowed to air dry for 5 minute. 50 ul of a 0.4% (w/v) Sulforhodamine B solution in 1% (v/v) acetic acid was added per well and the cells were incubated for 30 minutes at room temperature. Following staining, plates were washed four times with 1% acetic acid to remove any unbound dye and then allowed to air dry for 5 minutes. The stain was solubilized with 100 ul of 10 mM Tris pH 10.5 per well and placed on an orbital rotator for 5 minutes. The absorbance was read at 570 nm. Percentage growth was calculated using the absorbance readings from the time zero plate (Tz) and the dilution series plate […] which included a column of cells grown in media without compound as a control (C) using the formulas: [(Ti−Tz)/(C−Tz)]×100 for concentrations for which Ti>/=Tz [(Ti−Tz)/Tz]×100 for concentrations for which Ti<Tz.
Three dose response parameters were calculated for each experimental agent. Growth inhibition of 50% (GI50) was calculated from [(Ti−Tz)/(C−Tz)]×100=50, which was the drug concentration resulting in a 50% reduction in the net protein increase (as measured by SRB staining) in control cells during the drug incubation. The drug concentration resulting in total growth inhibition (TGI) was calculated from Ti=Tz. The LC50 (concentration of drug resulting in a 50% reduction in the measured protein at the end of the drug treatment as compared to that at the beginning) indicating a net loss of cells following treatment ws calculated from [(Ti−Tz)/Tz]×100=−50. Values are calculated for each of these three parameters if the level of activity was reached; however, if the effect was not reached or was exceeded, the value for that parameter is expressed as greater or less than the maximum or minimum concentration tested.

Aurora B kinase, sequence (Q96GD4 whole entry): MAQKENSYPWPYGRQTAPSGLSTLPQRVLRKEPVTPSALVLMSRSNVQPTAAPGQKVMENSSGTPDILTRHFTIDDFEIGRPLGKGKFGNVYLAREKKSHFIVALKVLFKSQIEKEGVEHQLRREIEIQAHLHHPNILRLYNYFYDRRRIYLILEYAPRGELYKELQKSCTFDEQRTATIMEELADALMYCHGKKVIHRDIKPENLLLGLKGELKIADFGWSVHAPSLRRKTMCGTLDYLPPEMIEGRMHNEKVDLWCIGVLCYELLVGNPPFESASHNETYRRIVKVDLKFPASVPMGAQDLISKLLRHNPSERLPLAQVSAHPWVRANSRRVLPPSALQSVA

Row | IC50 [1] | inhibition at 100 µM [2] | Structure (SMILES) | GI50 [3]
1 | < 0.1 µM | 100% | CCOC(=O)c1nc(Sc2ccc(NC(=O)C3CC3)cc2)nc(Nc2cc(C)[nH]n2)c1N [Compound 11, Ethyl 2-(4-cyclopropanecarboxamidophenylsulfanyl)-5-amino-6-(5-methylpyrazol-3-ylamino)-4-pyrimidinecarboxylate] | 0.1 to 1 µM
2 | < 0.1 µM | 100% | Cc1cc(Nc2nc(Sc3ccc(NC(=O)C4CC4)cc3)nc(C(=O)NCCN3CCOCC3)c2N)n[nH]1 [Compound 52, N-(2-Morpholin-4-ylethyl) 2-(4-cyclopropanecarboxamidophenylsulfanyl)-5-amino-6-(5-methylpyrazol-3-ylamino)-4-pyrimidinecarboxamide] | 0.1 to 1 µM
